The results in this text go back to patent US11840686B2, “Modulation of prekallikrein (PKK) expression” (Ionis Pharmaceuticals, Inc., priority 2013, dated 2023).

In this data set the test system is human PKK mRNA. The data set is described as follows: Antisense inhibition of human PKK mRNA in HepaRG cells, 3,000 nM (Example 1). In kind it is cell-based. The conditions noted are these: relative to untreated control cells. The method in brief: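 HepaRG cells, 20,000 per well, were electroporated with 3,000 nM 5-10-5 MOE gapmer (phosphorothioate, 5-methylcytosine). After about 24 h, PKK mRNA was measured by qRT-PCR with primer probe set RTS3454 and normalised to RIBOGREEN total RNA. Values are percent inhibition versus untreated cells.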

Where [1] appears, read: Table 4, HepaRG cells, electroporation with 3,000 nM antisense oligonucleotide, approx. 24 hours, PKK mRNA by RT-PCR (RTS3454).
The mark [2] stands for this setting: Table 1, PKK mRNA, HepaRG cells, 3,000 nM, electroporation, ~24 h.
[3] abbreviates: Table 2, PKK mRNA, HepaRG cells, 3,000 nM, electroporation, ~24 h.
Setting [4] is: Table 3, HepaRG cells, electroporation with 3,000 nM antisense oligonucleotide, approx. 24 hours, PKK mRNA by RT-PCR (RTS3454).

Strand notation (5' to 3'): a small letter for the sugar, then the base; units joined by * are phosphorothioate-linked, units joined directly phosphodiester-linked; [ ] holds rarer units or linkages, { } end groups; capitals alone tell only the bases. e = 2'-O-(2-methoxyethyl) (MOE); [5mC] = 5-methylcytosine; d = 2'-deoxy (DNA)

For “531200 (e[5mC]*eA*eA*eA*eA*dT*d[5mC]*dA*d[5mC]*dA*dA*dG*dT*dT*d[5mC]*eT*eA*eG*eA*eT; antisense) [compound 531200]”, the % inhibition (as a rule, how much of the control response was suppressed) under setting [1] was found to be 51%. With “530955 (antisense e[5mC]*eA*eA*eA*e[5mC]*d[5mC]*dT*dT*dT*dT*d[5mC]*dT*d[5mC]*d[5mC]*dA*eT*eG*eT*e[5mC]*eA) [compound 530955]”, the “% inhibition” value under setting [2] amounted to 55%. For the substance “531009 (eT*eT*eT*eG*eT*dT*d[5mC]*d[5mC]*dT*d[5mC]*d[5mC]*dA*dA*d[5mC]*dA*eA*eT*eG*e[5mC]*eG; antisense) [compound 531009]”, the “% inhibition” value under setting [3] came out at 65%. The same measure, in the same setting: as for “531037 (antisense eA*eA*e[5mC]*eA*eG*dT*dT*dG*dG*dT*dA*dT*dA*dA*dA*eT*eT*eG*eT*eG) [compound 531037]”, the figure is 35%; as for “531060 (antisense eT*eG*eG*eT*eG*dA*dT*dG*d[5mC]*d[5mC]*d[5mC]*dA*d[5mC]*d[5mC]*dA*eA*eA*e[5mC]*eG*e[5mC]) [compound 531060]”, 35%. Still for that read-out and setting: the figure for “531081 (eT*eG*eG*eT*eT*dT*dT*dT*dG*dG*dA*dA*dT*dT*d[5mC]*eT*eG*eA*eA*eA; antisense) [compound 531081]” is 14%.

Take “531010 (eA*eA*eG*eA*eG*dT*dT*dT*dG*dT*dT*d[5mC]*d[5mC]*dT*d[5mC]*e[5mC]*eA*eA*e[5mC]*eA; antisense) [compound 531010]”: the “% inhibition” value under setting [3] amounted to 52%. Consider “531213 (e[5mC]*eA*eA*eA*eA*dT*dT*dA*dA*dT*dT*dG*dT*dG*d[5mC]*eA*eT*eA*eA*eT; antisense) [compound 531213]”, for which, under setting [1], the “% inhibition” value was 13%.

For “531184 (antisense eA*e[5mC]*eT*e[5mC]*eT*dT*dA*dT*dT*dA*dG*d[5mC]*dT*dG*dG*eT*eA*eG*eA*eA) [compound 531184]”, the “% inhibition” value under setting [1] was 74%.

Consider “531073 (e[5mC]*e[5mC]*e[5mC]*eA*eG*dG*d[5mC]*dT*d[5mC]*dA*dG*dA*dA*dT*dT*eT*eG*eA*e[5mC]*eT; antisense) [compound 531073]”, for which, under setting [3], the “% inhibition” value is recorded as 51%. “531144 (antisense eT*eG*eA*eA*eG*dA*dT*dT*d[5mC]*dT*dA*dT*dT*dT*dA*eA*e[5mC]*eA*eA*eA) [compound 531144]”: under setting [4], the “% inhibition” value was determined as 0%. Still for that read-out and setting: as for “531111 (antisense e[5mC]*eT*eT*e[5mC]*eT*d[5mC]*d[5mC]*dT*dG*dG*d[5mC]*dT*d[5mC]*dA*dG*eA*eA*eG*e[5mC]*eT) [compound 531111]”, the figure is 68%. As to “530974 (antisense eT*eT*e[5mC]*eT*eT*dG*dA*dG*dG*dA*dG*dT*dA*dG*dA*eG*eG*eA*eA*e[5mC]) [compound 530974]”, under setting [2], the “% inhibition” value is 18%. As for “531190 (eG*e[5mC]*eA*eG*eT*d[5mC]*dA*d[5mC]*dT*d[5mC]*d[5mC]*dT*d[5mC]*dT*dT*e[5mC]*e[5mC]*eA*eG*e[5mC]; antisense) [compound 531190]”, under setting [1], the “% inhibition” value is given as 59%.

Regarding “531019 (eG*eT*eG*eA*eG*dG*dA*d[5mC]*d[5mC]*d[5mC]*dA*d[5mC]*dT*dG*dG*eT*eG*eT*e[5mC]*e[5mC]; antisense) [compound 531019]”, the “% inhibition” value under setting [3] is 28%. Take “531163 (antisense eT*e[5mC]*eA*eG*e[5mC]*dA*dG*dA*dA*dA*dT*d[5mC]*dA*dT*dG*eT*eA*eG*eG*e[5mC]) [compound 531163]”: the “% inhibition” value under setting [1] is listed as 60%.

For the substance “531138 (antisense eT*eT*eT*eA*eA*dA*dT*dG*dT*dG*dT*d[5mC]*dA*d[5mC]*dT*eT*eA*eA*eT*e[5mC]) [compound 531138]”, the “% inhibition” value under setting [4] was 0%. On to “531024 (eT*eT*eT*eA*eT*dT*dT*dG*dT*dG*dA*dG*dA*dA*dA*eG*eG*eT*eG*eT; antisense) [compound 531024]”, for which the “% inhibition” value under setting [3] stood at 69%. “530938 (antisense eG*eG*eA*eA*eA*dT*dG*dA*dA*dA*dT*dA*dA*dG*dT*eT*eG*e[5mC]*eT*eT) [compound 530938]”: the “% inhibition” value under setting [2] was determined as 11%. Take “531146 (antisense e[5mC]*e[5mC]*eA*eG*eT*dG*dT*dA*dA*dT*dT*d[5mC]*dA*dA*dA*eG*eG*eA*eG*e[5mC]) [compound 531146]”: under setting [4], the “% inhibition” value turned out to be 40%. “531042 (antisense eT*eT*eA*e[5mC]*e[5mC]*dA*dA*dA*dG*dG*dA*dA*dT*dA*dT*eT*eT*eA*e[5mC]*e[5mC]) [compound 531042]”: under setting [3], the “% inhibition” value was 11%. Turning to “531210 (eA*eG*eA*e[5mC]*eA*dT*dT*dG*dT*d[5mC]*dA*dA*dA*dT*dG*eT*e[5mC]*e[5mC]*e[5mC]*e[5mC]; antisense) [compound 531210]”, under setting [1], the “% inhibition” value was 60%. Still for that read-out and setting: the figure for “531229 (e[5mC]*eT*eT*e[5mC]*eA*dA*dA*dG*d[5mC]*d[5mC]*dA*dG*d[5mC]*dA*dG*eT*eG*eT*eA*eA; antisense) [compound 531229]” is 69%. For the substance “530940 (antisense eT*eA*eG*e[5mC]*eA*dA*dA*d[5mC]*dA*dA*dG*dG*dA*dA*dA*eT*eG*eA*eA*eA) [compound 530940]”, the “% inhibition” value under setting [2] stood at 7%. For “531209 (eT*eG*eG*eA*eT*dT*d[5mC]*dA*dT*dT*dT*dT*d[5mC]*dT*dG*e[5mC]*eA*eA*eA*eT; antisense) [compound 531209]”, under setting [1], the “% inhibition” value is on record as 81%. As for “530985 (antisense eA*eA*eA*eT*eT*dT*dT*dA*dG*dA*dA*dT*dG*dG*d[5mC]*eA*eG*eG*eG*eT) [compound 530985]”, under setting [2], the “% inhibition” value came to 32%. Consider “531056 (antisense eT*eT*eT*e[5mC]*e[5mC]*d[5mC]*d[5mC]*d[5mC]*dT*dT*d[5mC]*dT*dT*dT*dA*eT*eA*eG*e[5mC]*e[5mC]) [compound 531056]”, for which the “% inhibition” value under setting [3] was found to be 45%. For the substance “531168 (antisense eA*e[5mC]*e[5mC]*e[5mC]*e[5mC]*dA*dA*d[5mC]*dA*dG*dA*d[5mC]*dA*dG*d[5mC]*e[5mC]*e[5mC]*eA*e[5mC]*e[5mC]) [compound 531168]”, the “% inhibition” value under setting [1] was 55%. For “531095 (e[5mC]*eT*eA*eA*e[5mC]*dA*dA*d[5mC]*d[5mC]*d[5mC]*d[5mC]*dA*d[5mC]*dA*dA*eT*eA*eT*e[5mC]*eA; antisense) [compound 531095]”, the “% inhibition” value under setting [4] came to 20%. Consider “531023 (e[5mC]*eT*eT*eT*eT*dG*dT*dA*dA*dT*dG*dT*d[5mC]*dT*dG*eA*e[5mC]*eA*eG*eA; antisense) [compound 531023]”, for which the “% inhibition” value under setting [3] is given as 71%. Turning to “531028 (antisense eA*eA*eT*eT*e[5mC]*dA*dA*dA*dG*dG*dA*dG*d[5mC]*d[5mC]*dT*eG*eG*eA*eG*eT) [compound 531028]”, under setting [3], the “% inhibition” value stood at 56%. “531224 (eA*eA*eG*eA*eG*dA*dA*dT*dG*d[5mC]*dT*d[5mC]*dA*dG*dA*eA*eA*eT*eG*eG; antisense) [compound 531224]”: under setting [1], the “% inhibition” value was determined as 25%. For “530950 (antisense eA*e[5mC]*e[5mC]*eT*eT*dG*dG*dG*dT*dG*dG*dA*dA*dT*dG*eT*eG*e[5mC]*eA*e[5mC]) [compound 530950]”, the “% inhibition” value under setting [2] is 47%. As for “530982 (antisense eT*eA*eA*eA*eG*dT*dT*d[5mC]*dT*dT*dT*dT*dG*d[5mC]*dA*eG*eG*eT*eT*eA) [compound 530982]”, the “% inhibition” value under setting [2] worked out at 0%. The same measure, in the same setting: as for “530989 (eT*e[5mC]*eT*e[5mC]*e[5mC]*dT*d[5mC]*d[5mC]*dA*dA*dA*dG*dT*d[5mC]*dA*eA*e[5mC]*eT*e[5mC]*e[5mC]; antisense) [compound 530989]”, the figure is 28%.

For “531018 (eG*eA*e[5mC]*e[5mC]*e[5mC]*dA*d[5mC]*dT*dG*dG*dT*dG*dT*d[5mC]*d[5mC]*eT*eA*eT*eG*eA; antisense) [compound 531018]”, the “% inhibition” value under setting [3] worked out at 54%. Still for that read-out and setting: as for “531038 (antisense e[5mC]*eA*eA*e[5mC]*eA*dG*dT*dT*dG*dG*dT*dA*dT*dA*dA*eA*eT*eT*eG*eT) [compound 531038]”, the figure is 22%.

On to “531219 (e[5mC]*eT*eT*e[5mC]*eT*d[5mC]*dT*dA*dT*d[5mC]*dT*d[5mC]*d[5mC]*d[5mC]*dA*eG*eT*eG*eT*eT; antisense) [compound 531219]”, for which, under setting [1], the “% inhibition” value was found to be 61%. On to “530994 (e[5mC]*eT*eT*eG*eG*d[5mC]*dA*dA*dA*d[5mC]*dA*dT*dT*d[5mC]*dA*e[5mC]*eT*e[5mC]*e[5mC]*eT; antisense) [compound 530994]”, for which the “% inhibition” value under setting [2] was determined as 50%. As to “531090 (eA*e[5mC]*eA*eG*eA*dA*dA*d[5mC]*d[5mC]*dA*dT*dG*dA*dT*dG*eT*eT*eG*e[5mC]*eT; antisense) [compound 531090]”, the “% inhibition” value under setting [4] is 59%. On the same count and under the same terms, as for “531087 (e[5mC]*e[5mC]*eA*eG*eG*dT*dG*dT*dG*dG*dA*d[5mC]*dA*dG*d[5mC]*eA*eG*e[5mC]*eT*eG; antisense) [compound 531087]”, the figure is 52%. For the substance “530960 (antisense eA*eT*eT*e[5mC]*eT*dT*d[5mC]*dA*dA*d[5mC]*dA*d[5mC]*dT*dG*d[5mC]*eT*eA*eA*e[5mC]*e[5mC]) [compound 530960]”, under setting [2], the “% inhibition” value is listed as 58%.

Turning to “531145 (antisense eG*e[5mC]*e[5mC]*eT*eA*dG*dG*dA*dG*dA*dG*dA*dA*dA*dA*eA*eT*eA*eA*eA) [compound 531145]”, under setting [4], the “% inhibition” value is 0%. For “531196 (eT*eT*eG*eA*eG*dT*d[5mC]*dA*dG*dA*d[5mC]*dA*dT*d[5mC]*d[5mC]*eT*eG*eT*eG*eA; antisense) [compound 531196]”, the “% inhibition” value under setting [1] is listed as 38%. The same measure, in the same setting: the figure for “531203 (eT*eG*eA*e[5mC]*eT*dA*dT*d[5mC]*d[5mC]*dA*dA*dT*dT*dT*d[5mC]*eT*eA*eG*eT*eT; antisense) [compound 531203]” is 67%.
